In ChEMBL document CHEMBL5653631, “A Potent and Selective ULK1 Inhibitor Suppresses Autophagy and Sensitizes Cancer Cells to Nutrient Stress” (iScience, 2018):

What was measured:
[1] = target: Casein kinase II subunit alpha (Homo sapiens) (UniProt P68400); assay: Inhibition of human recombinant CK2a1 at 500 nM related to control ULK1
[2] = target: Cyclin-dependent kinase 2 (Homo sapiens) (UniProt P24941); assay: Inhibition of human recombinant CDK2 at 15 nM in presence of ATP by radiometric assay relative to control
[3] = target: T1, Discoidin domain-containing receptor 2 (Homo sapiens) (UniProt Q16832); assay: Inhibition of human recombinant DDR2 at 15 nM related to control ULK1
T1 sequence (whole entry): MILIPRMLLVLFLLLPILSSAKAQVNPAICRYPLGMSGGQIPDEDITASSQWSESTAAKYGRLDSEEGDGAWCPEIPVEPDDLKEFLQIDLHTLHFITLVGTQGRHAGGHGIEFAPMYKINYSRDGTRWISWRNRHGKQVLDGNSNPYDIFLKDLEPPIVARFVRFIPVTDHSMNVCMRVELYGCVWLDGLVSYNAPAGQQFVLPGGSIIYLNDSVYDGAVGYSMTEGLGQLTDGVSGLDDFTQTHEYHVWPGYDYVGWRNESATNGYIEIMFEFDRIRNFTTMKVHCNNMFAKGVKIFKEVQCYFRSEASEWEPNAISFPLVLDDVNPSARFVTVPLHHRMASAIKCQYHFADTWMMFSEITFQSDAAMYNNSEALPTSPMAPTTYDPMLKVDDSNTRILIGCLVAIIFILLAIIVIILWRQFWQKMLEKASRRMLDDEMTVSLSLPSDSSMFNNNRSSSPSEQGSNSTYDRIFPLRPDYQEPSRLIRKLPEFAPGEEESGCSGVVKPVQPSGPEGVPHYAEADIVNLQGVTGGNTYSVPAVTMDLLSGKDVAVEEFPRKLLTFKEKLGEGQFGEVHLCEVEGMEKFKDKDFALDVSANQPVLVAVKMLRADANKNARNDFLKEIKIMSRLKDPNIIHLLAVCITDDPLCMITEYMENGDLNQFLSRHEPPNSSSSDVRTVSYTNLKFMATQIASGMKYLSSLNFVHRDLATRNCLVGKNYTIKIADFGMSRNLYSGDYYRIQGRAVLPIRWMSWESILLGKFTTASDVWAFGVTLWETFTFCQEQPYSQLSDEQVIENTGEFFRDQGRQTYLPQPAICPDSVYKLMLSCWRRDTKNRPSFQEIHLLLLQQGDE

[4] = target: Protein kinase C iota type (Homo sapiens) (UniProt P41743); assay: Inhibition of human recombinant PKCi at 15 nM related to control ULK1
Protein kinase C iota type (Homo sapiens), sequence (P41743 whole entry, looked up): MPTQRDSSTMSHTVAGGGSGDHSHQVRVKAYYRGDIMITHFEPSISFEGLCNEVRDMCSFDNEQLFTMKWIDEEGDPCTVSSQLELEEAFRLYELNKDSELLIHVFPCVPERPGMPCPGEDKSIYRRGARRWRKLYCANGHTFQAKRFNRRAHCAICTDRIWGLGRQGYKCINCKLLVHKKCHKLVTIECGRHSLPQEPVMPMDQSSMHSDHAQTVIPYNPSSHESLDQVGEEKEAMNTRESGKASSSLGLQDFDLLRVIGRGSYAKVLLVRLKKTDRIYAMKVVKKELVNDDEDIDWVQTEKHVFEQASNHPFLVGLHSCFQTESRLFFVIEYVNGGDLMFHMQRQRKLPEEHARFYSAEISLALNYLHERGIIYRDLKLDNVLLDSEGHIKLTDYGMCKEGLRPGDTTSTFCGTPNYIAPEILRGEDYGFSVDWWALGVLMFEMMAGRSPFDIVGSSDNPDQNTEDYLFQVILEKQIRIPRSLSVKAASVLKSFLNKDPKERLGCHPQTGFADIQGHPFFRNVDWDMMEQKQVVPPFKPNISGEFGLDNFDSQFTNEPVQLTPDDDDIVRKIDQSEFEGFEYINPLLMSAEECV

[5] = target: Mast/stem cell growth factor receptor Kit (Homo sapiens) (UniProt P10721); assay: Inhibition of human recombinant KIT at 15 nM related to control ULK1
Mast/stem cell growth factor receptor Kit (Homo sapiens), sequence (P10721 whole entry): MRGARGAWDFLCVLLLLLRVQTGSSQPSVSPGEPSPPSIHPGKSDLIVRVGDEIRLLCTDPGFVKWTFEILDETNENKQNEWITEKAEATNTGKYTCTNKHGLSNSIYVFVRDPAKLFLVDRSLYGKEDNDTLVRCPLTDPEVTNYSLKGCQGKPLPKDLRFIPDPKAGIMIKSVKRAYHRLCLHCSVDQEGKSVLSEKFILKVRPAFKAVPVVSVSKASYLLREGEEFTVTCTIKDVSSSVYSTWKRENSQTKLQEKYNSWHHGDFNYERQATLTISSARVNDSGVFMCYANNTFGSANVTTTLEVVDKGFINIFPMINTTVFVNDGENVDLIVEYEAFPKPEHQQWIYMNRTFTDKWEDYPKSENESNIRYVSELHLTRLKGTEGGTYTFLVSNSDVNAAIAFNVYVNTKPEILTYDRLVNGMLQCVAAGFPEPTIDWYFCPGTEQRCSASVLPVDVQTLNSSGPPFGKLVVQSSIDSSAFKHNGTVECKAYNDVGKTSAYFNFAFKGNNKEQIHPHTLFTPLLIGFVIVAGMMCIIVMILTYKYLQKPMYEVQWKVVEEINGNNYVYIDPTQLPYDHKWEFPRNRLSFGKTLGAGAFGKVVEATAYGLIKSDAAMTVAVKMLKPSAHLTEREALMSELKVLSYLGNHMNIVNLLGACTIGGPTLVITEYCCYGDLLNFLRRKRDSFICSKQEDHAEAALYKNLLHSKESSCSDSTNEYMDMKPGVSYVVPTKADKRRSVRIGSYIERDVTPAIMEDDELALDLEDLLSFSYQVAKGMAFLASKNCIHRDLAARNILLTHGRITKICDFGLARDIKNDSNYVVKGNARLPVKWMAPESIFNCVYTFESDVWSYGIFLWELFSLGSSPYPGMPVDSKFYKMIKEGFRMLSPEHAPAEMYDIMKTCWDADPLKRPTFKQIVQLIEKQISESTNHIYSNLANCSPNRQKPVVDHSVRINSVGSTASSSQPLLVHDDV

[6] = target: Mitogen-activated protein kinase kinase kinase 10 (Homo sapiens) (UniProt Q02779); assay: Inhibition of human recombinant MLK2 at 15 nM related to control ULK1
Mitogen-activated protein kinase kinase kinase 10 (Homo sapiens), sequence (Q02779 whole entry, looked up): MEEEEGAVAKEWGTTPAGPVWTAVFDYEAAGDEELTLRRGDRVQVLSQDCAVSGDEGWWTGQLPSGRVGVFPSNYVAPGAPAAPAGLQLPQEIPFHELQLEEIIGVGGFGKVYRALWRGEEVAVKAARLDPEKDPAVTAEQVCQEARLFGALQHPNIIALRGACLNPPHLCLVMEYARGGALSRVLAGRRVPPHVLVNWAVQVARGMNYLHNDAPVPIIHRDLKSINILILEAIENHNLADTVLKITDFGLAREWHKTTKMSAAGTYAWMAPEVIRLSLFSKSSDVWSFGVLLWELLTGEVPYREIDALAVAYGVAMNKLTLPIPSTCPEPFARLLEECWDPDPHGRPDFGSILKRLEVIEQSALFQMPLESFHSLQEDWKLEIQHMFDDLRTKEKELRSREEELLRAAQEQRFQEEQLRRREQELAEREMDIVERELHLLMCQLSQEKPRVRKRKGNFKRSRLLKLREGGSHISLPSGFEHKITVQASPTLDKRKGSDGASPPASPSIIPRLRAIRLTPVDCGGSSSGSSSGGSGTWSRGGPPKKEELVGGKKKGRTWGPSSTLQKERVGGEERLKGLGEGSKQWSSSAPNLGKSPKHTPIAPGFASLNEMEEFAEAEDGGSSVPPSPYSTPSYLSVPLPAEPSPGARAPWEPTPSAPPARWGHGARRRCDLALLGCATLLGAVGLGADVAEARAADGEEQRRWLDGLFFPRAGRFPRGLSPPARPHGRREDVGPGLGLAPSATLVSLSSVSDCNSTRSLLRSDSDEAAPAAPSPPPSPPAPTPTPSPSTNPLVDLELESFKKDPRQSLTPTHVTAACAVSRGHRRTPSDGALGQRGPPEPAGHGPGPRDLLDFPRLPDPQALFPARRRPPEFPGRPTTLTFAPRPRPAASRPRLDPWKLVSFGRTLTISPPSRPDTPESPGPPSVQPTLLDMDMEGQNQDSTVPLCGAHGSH

[7] = target: Mitogen-activated protein kinase 11 (Homo sapiens) (UniProt Q15759); assay: Inhibition of human recombinant p38beta at 40 nM related to control ULK1
Mitogen-activated protein kinase 11 (Homo sapiens), sequence (Q15759 whole entry): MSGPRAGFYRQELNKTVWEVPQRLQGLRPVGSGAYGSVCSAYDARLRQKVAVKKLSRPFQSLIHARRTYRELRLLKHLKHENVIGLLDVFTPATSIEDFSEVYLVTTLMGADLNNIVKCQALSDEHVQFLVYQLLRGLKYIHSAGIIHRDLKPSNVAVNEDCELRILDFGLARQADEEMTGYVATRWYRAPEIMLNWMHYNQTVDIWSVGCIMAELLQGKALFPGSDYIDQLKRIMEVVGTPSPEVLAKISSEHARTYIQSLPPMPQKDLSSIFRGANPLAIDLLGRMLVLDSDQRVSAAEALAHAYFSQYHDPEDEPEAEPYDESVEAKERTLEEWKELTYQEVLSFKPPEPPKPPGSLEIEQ

[8] = target: T2, Tyrosine-protein kinase TXK (Homo sapiens) (UniProt P42681); assay: Inhibition of human recombinant TXK at 40 nM in presence of ATP by radiometric assay relative to control
T2 sequence (whole entry): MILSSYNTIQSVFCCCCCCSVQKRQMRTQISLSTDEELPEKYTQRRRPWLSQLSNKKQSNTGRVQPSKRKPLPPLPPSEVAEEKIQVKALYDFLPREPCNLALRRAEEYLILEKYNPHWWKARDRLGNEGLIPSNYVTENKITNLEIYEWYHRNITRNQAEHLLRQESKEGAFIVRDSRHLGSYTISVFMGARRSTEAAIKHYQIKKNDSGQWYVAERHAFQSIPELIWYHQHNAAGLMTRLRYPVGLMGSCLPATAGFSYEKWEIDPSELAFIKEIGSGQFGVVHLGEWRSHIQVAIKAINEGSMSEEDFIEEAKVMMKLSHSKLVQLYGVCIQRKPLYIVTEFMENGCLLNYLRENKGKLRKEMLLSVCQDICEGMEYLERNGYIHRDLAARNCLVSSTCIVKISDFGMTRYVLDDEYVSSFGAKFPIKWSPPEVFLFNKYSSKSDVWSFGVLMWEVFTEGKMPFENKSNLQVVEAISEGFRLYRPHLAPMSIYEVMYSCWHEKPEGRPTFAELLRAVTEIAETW

[9] = target: Serine/threonine-protein kinase WNK1 (Homo sapiens) (UniProt Q9H4A3); assay: Inhibition of human recombinant Wnk1 at 40 nM related to control ULK1
[10] = target: Misshapen-like kinase 1 (Homo sapiens) (UniProt Q8N4C8); assay: Inhibition of human recombinant MINK at 40 nM related to control ULK1
Misshapen-like kinase 1 (Homo sapiens), sequence (Q8N4C8 whole entry, looked up): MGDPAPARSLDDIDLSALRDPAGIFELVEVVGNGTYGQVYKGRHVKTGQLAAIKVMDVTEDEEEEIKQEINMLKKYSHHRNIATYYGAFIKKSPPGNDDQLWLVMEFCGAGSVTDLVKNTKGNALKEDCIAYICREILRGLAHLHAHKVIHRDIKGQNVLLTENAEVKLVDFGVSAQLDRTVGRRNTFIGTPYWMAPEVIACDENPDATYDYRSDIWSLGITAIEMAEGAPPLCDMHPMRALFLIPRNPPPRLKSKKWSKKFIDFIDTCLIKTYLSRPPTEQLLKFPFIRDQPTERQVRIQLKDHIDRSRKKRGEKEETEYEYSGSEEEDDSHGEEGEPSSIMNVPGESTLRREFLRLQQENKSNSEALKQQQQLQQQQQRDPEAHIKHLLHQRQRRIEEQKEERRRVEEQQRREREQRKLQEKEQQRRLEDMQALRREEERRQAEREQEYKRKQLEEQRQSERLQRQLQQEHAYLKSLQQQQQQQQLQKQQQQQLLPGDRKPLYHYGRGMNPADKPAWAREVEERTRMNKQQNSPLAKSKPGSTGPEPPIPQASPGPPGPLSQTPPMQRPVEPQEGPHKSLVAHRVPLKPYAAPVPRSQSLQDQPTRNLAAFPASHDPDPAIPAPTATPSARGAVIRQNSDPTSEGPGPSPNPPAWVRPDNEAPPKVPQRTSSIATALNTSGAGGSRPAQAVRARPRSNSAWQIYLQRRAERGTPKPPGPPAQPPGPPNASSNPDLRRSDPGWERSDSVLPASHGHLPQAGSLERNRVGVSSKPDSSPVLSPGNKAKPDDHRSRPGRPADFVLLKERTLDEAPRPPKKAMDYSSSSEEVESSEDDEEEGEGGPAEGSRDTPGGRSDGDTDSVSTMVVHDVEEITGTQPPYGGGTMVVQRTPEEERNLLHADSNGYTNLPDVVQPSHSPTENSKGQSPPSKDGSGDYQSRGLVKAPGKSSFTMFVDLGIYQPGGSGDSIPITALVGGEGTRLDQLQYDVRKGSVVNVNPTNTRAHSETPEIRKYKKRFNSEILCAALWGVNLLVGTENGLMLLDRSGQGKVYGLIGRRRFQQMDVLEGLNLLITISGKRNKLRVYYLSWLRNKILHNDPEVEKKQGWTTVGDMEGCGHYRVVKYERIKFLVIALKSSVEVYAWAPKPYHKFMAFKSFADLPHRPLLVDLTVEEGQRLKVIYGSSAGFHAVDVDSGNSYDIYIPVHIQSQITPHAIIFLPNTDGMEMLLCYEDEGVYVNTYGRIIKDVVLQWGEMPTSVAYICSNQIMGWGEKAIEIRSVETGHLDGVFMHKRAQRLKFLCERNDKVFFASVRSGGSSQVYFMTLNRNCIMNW

Casein kinase II subunit alpha (Homo sapiens), sequence (P68400 whole entry, looked up): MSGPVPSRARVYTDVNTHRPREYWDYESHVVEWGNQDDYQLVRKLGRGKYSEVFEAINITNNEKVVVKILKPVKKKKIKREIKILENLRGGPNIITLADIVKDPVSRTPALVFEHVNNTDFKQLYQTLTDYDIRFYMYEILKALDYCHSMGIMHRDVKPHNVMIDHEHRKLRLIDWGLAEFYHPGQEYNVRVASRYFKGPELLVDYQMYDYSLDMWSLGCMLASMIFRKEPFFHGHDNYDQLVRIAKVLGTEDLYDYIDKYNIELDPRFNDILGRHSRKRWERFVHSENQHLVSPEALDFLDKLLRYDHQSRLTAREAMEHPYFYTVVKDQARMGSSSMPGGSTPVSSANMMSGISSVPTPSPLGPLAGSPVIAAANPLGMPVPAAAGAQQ

CNC(=O)c1ccccc1Oc1nc(Nc2cc(OC)c(OC)c(OC)c2)ncc1Br
fold change (FC) [1]: 0.19

CC(C)[C@H](NC(=O)c1cc(-c2cnn3cc(-c4ccc(OCCN5CCCCC5)cc4)cnc23)cs1)C(F)(F)F
inhibition [2]: 1%
fold change (FC) [3]: 0
fold change (FC) [4]: 0.05
fold change (FC) [5]: 0
fold change (FC) [6]: 0.14

O=C(N[C@@H](C1CC1)C(F)(F)F)c1cc(-c2cnn3cc(-c4ccc(F)cc4)cnc23)cs1
fold change (FC) [7]: 0.14
inhibition [8]: 13%
fold change (FC) [9]: 0.16
fold change (FC) [10]: 0.1
